Results: article PMC3335988 (Neurochemistry international, 2011)
Counter-ions that a name gives are not always drawn. Like-named read-outs stand apart in the source and are kept apart here. Marks after values point to notes of the source that are not given here.

Key:
rat GluN1/GluN2B [1] = molecular target: T1, rat GluN1/GluN2B (Rattus norvegicus, UniProt P35439+Q00960); assay: cell-based; assay type: cell-based; details: for nH (Hill slope, inhibition): 100 µM glutamate plus 30 µM glycine; for nH (Hill slope): 30 µM glycine
human GluN1/GluN2B = human GluN1/GluN2B (Homo sapiens, UniProt Q05586+Q13224); assay: cell-based; assay type: cell-based; details: for nH (Hill slope, inhibition) / nH (Hill slope) / EC50: human GluN1/GluN2B; for nH (Hill slope, inhibition): 100 µM glutamate plus 30 µM glycine; for nH (Hill slope, inhibition) / EC50: -40 mV
human GluN1/GluN2A = human GluN1/GluN2A (Homo sapiens, UniProt Q05586+Q12879); assay type: cell-based; details: for nH (Hill slope, inhibition): 100 µM glutamate plus 30 µM glycine
human GluN1/GluN2C = human GluN1/GluN2C (Homo sapiens, UniProt Q05586+Q14957, INS1047EPP); assay: cell-based; assay type: cell-based
rat GluN1/GluN2D [2] = molecular target: T2, rat GluN1/GluN2D (Rattus norvegicus, UniProt P35439+Q62645); assay type: cell-based; details: for nH (Hill slope): 30 µM glycine
rat GluN1/GluN2A [3] = molecular target: T3, rat GluN1/GluN2A (Rattus norvegicus, UniProt P35439+Q00959); assay: Two-electrode voltage-clamp recordings, recombinant receptors in Xenopus oocytes; assay type: cell-based; details: for nH (Hill slope): 30 µM glycine; for nH (Hill slope, inhibition): 100 µM glutamate plus 30 µM glycine
rat GluN1/GluN2C = rat GluN1/GluN2C (Rattus norvegicus, UniProt P35439+Q00961); assay type: cell-based; details: for nH (Hill slope): 30 µM glycine
human GluN1/GluN2D [4] = molecular target: T4, human GluN1/GluN2D (Homo sapiens, UniProt O15399+Q05586); assay: cell-based; assay type: cell-based
human GluN1/GluN2D [5] = molecular target: T4, human GluN1/GluN2D; details: HEK293 cells, 2 mM extracellular Ca2+, ref Hess et al., 1998; cited from earlier work
rat GluN1/GluN2D [6] = molecular target: T2, rat GluN1/GluN2D; details: Table 2, ref Hansen and Traynelis, 2011; cited from earlier work
rat GluN1/GluN2B [7] = molecular target: T1, rat GluN1/GluN2B; details: HEK293 cells, 2 mM extracellular Ca2+, ref Vicini et al., 1998; cited from earlier work
rat GluN1/GluN2A [8] = molecular target: T3, rat GluN1/GluN2A; details: HEK293 cells, 2 mM extracellular Ca2+, ref Vicini et al., 1998; cited from earlier work
[9] = tested on: human and rat NMDA receptor subtypes; assay: Two-electrode voltage-clamp, relative agonist efficacy across subtypes; assay type: cell-based; details: range over human and rat subtypes; same recording; 30 µM glycine
[10] = human GluN1/GluN2C, 100 µM glutamate plus 30 µM glycine, -40 mV
[11] = rat GluN1/GluN2D, 100 µM glutamate plus 30 µM glycine, -40 mV
[12] = rat GluN1/GluN2C, 100 µM glutamate plus 30 µM glycine, -40 mV
[13] = human GluN1/GluN2D, 100 µM glutamate plus 30 µM glycine, -40 mV
[14] = rat GluN1/GluN2D, 100 µM glutamate plus 30 µM glycine
[15] = rat GluN1/GluN2C, 100 µM glutamate plus 30 µM glycine
[16] = human GluN1/GluN2D, 100 µM glutamate plus 30 µM glycine

T3 sequence (Q00959 23-1464, other chains not shown): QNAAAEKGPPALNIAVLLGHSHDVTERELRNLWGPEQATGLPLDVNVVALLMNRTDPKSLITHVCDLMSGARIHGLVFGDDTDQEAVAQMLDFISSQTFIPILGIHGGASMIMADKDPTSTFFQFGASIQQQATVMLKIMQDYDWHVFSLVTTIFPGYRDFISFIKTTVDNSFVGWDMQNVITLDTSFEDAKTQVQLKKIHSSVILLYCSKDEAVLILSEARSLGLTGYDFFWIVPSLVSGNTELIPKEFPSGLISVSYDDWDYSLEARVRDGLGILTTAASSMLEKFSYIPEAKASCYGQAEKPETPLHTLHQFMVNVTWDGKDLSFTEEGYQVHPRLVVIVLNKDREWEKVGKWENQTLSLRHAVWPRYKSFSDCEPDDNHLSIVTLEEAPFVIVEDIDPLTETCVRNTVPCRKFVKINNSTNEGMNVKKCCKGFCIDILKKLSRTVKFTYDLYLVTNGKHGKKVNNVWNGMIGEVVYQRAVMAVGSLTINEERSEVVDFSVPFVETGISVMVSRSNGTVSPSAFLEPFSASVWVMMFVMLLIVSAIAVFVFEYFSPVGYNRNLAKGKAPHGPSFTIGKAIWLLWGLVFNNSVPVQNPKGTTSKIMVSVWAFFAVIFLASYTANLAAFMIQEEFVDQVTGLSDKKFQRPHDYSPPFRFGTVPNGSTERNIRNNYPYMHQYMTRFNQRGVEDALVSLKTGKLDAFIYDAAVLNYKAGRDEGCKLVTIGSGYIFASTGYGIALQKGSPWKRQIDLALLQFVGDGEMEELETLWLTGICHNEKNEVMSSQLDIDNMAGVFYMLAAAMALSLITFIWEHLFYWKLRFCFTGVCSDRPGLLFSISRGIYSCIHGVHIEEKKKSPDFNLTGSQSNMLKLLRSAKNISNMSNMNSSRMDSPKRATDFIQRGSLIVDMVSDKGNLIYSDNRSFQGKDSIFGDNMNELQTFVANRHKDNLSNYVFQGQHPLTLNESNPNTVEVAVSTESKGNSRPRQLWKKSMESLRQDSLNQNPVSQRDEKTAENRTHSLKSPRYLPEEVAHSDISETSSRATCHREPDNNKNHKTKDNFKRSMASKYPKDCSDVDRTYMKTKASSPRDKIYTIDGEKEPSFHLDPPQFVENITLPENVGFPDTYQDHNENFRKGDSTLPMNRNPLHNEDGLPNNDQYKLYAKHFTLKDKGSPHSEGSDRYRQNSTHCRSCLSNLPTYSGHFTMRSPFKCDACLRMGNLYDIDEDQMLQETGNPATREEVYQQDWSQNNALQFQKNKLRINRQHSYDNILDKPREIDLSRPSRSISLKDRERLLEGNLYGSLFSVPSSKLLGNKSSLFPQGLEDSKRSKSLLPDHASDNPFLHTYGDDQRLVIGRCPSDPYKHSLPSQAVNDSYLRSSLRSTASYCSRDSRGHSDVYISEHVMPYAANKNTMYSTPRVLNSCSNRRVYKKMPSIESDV
Chain of rat GluN1/GluN2C (Q00961 20-1237, other chains not shown): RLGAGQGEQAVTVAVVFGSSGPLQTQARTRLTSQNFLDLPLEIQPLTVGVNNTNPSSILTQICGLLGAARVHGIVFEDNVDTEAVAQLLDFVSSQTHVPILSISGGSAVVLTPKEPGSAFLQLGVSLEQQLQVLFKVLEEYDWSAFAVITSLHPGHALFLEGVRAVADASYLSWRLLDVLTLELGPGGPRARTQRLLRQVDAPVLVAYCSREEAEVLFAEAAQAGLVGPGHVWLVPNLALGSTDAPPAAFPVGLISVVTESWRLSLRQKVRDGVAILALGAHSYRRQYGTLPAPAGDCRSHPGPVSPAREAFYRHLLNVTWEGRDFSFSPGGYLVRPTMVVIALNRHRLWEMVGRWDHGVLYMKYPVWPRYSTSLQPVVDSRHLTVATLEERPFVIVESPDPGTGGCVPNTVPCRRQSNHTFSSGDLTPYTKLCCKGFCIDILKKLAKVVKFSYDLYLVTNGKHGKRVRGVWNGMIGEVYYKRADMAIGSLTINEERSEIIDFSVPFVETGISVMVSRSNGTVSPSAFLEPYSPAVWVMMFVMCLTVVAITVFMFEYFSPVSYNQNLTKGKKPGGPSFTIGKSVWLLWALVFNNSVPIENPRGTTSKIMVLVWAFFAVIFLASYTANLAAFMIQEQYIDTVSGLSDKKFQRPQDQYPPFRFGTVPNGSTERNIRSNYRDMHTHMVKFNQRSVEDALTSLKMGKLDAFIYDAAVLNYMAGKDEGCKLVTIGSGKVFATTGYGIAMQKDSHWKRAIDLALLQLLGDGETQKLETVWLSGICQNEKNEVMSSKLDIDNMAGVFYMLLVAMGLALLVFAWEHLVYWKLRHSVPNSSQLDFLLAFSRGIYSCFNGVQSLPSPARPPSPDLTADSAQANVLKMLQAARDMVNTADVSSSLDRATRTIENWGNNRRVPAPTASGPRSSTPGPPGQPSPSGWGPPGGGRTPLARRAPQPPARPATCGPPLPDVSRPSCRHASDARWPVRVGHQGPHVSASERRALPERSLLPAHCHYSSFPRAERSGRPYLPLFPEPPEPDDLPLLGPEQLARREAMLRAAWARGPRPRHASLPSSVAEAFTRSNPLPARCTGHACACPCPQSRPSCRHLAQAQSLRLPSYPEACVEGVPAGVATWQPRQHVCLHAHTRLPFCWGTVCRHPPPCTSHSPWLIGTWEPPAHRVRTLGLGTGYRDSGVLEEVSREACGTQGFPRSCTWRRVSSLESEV
Chain of human GluN1/GluN2A (Q12879 23-1464, other chains not shown): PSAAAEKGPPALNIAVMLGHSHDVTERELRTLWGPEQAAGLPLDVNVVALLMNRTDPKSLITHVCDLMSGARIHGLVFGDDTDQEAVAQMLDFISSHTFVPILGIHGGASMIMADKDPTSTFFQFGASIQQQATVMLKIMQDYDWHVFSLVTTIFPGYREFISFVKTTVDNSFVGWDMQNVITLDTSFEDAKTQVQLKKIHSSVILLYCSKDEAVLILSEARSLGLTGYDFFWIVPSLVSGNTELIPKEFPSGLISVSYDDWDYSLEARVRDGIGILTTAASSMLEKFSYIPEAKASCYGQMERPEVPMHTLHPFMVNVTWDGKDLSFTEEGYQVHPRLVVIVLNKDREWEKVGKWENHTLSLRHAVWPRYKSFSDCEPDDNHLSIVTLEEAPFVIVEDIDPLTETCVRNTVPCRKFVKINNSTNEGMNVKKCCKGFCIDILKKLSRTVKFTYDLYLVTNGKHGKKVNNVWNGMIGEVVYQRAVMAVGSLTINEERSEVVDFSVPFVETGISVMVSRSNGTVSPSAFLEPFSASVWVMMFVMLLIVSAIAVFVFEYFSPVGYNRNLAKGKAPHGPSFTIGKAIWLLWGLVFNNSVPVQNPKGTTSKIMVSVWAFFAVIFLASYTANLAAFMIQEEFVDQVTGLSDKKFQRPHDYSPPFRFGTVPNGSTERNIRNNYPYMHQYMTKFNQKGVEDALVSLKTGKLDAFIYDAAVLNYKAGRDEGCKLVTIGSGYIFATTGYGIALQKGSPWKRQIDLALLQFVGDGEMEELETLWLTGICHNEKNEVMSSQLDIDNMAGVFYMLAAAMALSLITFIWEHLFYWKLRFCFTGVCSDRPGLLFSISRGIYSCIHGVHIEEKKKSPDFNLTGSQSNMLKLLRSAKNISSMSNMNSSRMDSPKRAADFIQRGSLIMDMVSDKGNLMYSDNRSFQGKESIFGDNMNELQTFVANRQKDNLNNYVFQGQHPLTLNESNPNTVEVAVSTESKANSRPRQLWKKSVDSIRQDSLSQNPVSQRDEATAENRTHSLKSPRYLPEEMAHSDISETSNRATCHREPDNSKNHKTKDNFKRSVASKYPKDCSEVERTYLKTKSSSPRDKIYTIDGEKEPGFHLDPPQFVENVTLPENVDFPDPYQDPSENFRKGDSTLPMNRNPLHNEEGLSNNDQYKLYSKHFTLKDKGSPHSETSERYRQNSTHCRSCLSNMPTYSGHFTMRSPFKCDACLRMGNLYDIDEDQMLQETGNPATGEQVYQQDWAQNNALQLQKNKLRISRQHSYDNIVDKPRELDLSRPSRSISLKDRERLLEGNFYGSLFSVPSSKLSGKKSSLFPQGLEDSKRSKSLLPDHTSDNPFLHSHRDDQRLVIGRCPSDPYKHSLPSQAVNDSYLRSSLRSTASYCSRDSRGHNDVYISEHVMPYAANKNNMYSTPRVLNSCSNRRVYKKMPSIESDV

OC(CN1CCC(Cc2ccc(F)cc2)CC1)c1ccc(Cl)cc1 (stereo not drawn) [eliprodil, α-(4-chlorophenyl)-4-[(4-fluorophenyl)methyl]-1-piperidineethanol]
nH (Hill slope, inhibition) (rat GluN1/GluN2B [1]; rat GluN1/GluN2B, -40 mV): 1.2 | nH (Hill slope, inhibition) (human GluN1/GluN2B): 1.3

NC(=NCc1ccc(Cl)cc1)SCCCc1cnc[nH]1 [clobenpropit, N-(4-chlorobenzyl)-S-[3-(4(5)-imidazolyl)propyl]isothiourea dihydrobromide]
nH (Hill slope, inhibition) (human GluN1/GluN2A; -40 mV): 1.0 | nH (Hill slope, inhibition) (human GluN1/GluN2C; [10]): 0.9 | nH (Hill slope, inhibition) (rat GluN1/GluN2D [2]; [11]): 0.9 | nH (Hill slope, inhibition) (rat GluN1/GluN2B [1]; rat GluN1/GluN2B, -40 mV): 1.3 | IC50 fold higher at rat compared to human (rat GluN1/GluN2A [3]; GluN1/GluN2A, rat vs human): 1.9 fold | nH (Hill slope, inhibition) (human GluN1/GluN2B): 1.0 | nH (Hill slope, inhibition) (rat GluN1/GluN2C; [12]): 0.8 | nH (Hill slope, inhibition) (human GluN1/GluN2D [4]; [13]): 1.0

CC12CC3CC(C)(C1)CC(N)(C3)C2 [memantine, memantine hydrochloride]
nH (Hill slope, inhibition) (human GluN1/GluN2A; -40 mV): 1.1 | nH (Hill slope, inhibition) (human GluN1/GluN2C): 1.0 | nH (Hill slope, inhibition) (human GluN1/GluN2B): 1.0 | nH (Hill slope, inhibition) (human GluN1/GluN2D [4]): 0.9

COc1ccc2nc(/C=C/c3cccc([N+](=O)[O-])c3)n(-c3ccc(C(=O)O)cc3)c(=O)c2c1 [QNZ46, (E)-4-(6-methoxy-2-(3-nitrostyryl)-4-oxoquinazolin-3(4H)-yl)-benzoic acid]
nH (Hill slope, inhibition) (human GluN1/GluN2C; [10]): 1.0 | nH (Hill slope, inhibition) (rat GluN1/GluN2D [2]; [11]): 1.0 | IC50 (rat GluN1/GluN2B [1]): > 100 µM | IC50 (human GluN1/GluN2B): > 100 µM | IC50 fold higher at rat compared to human (rat GluN1/GluN2C; GluN1/GluN2C, rat vs human): 1.2 fold | nH (Hill slope, inhibition) (rat GluN1/GluN2C; [12]): 1.2 | nH (Hill slope, inhibition) (human GluN1/GluN2D [4]; [13]): 1.0

N[C@@H](CCC(=O)O)C(=O)O [glutamate, L-glutamic acid]
nH (Hill slope) (human GluN1/GluN2A; 30 µM glycine): 1.3 | nH (Hill slope) (human GluN1/GluN2C): 1.6 | nH (Hill slope) (rat GluN1/GluN2D [2]; rat GluN1/GluN2D): 1.5 | τdeactivation glutamate (weighted time constant) (human GluN1/GluN2D [5]): 6300 ^a ms | τdeactivation following removal of glutamate (rat GluN1/GluN2D [6]): > 2 s | nH (Hill slope) (rat GluN1/GluN2B [1]; rat GluN1/GluN2B): 1.5 | nH (Hill slope) (rat GluN1/GluN2A [3]; rat GluN1/GluN2A): 1.4 | nH (Hill slope) (human GluN1/GluN2B; 30 µM glycine): 1.8 | τdeactivation glutamate (weighted time constant) (rat GluN1/GluN2B [7]): 287 ^k ms | τdeactivation glutamate (weighted time constant) (rat GluN1/GluN2A [8]): 54 ^k ms | nH (Hill slope) (rat GluN1/GluN2C; rat GluN1/GluN2C): 1.4 | nH (Hill slope) (human GluN1/GluN2D [4]): 1.5

CC(C(O)c1ccc(O)cc1)N1CCC(Cc2ccccc2)CC1 (stereo not drawn) [ifenprodil, (1R*,2S*)-erythro-2-(4-benzylpiperidino)-1-(4-hydroxyphenyl)-1-propanol hemitartrate]
nH (Hill slope, inhibition) (rat GluN1/GluN2B [1]; rat GluN1/GluN2B, -40 mV): 1.2 | nH (Hill slope, inhibition) (rat GluN1/GluN2A [3]; rat GluN1/GluN2A, -40 mV): 1.2 | nH (Hill slope, inhibition) (human GluN1/GluN2B): 1.1

NCC(=O)O [glycine]
nH (Hill slope) (human GluN1/GluN2A; 100 µM glutamate): 1.3 | EC50 (human GluN1/GluN2C): 0.25 ± 0.01 µM | nH (Hill slope) (human GluN1/GluN2C): 1.6 | τdeactivation glycine (weighted time constant) (human GluN1/GluN2D [5]): 1800 ^a ms | nH (Hill slope) (human GluN1/GluN2B; 100 µM glutamate): 1.7 | EC50 (human GluN1/GluN2B; continuous presence of 100 µM glutamate): 0.29 ± 0.04 µM | EC50 (human GluN1/GluN2D [4]): 0.12 ± 0.01 µM | nH (Hill slope) (human GluN1/GluN2D [4]): 1.8

COc1ccc(OCC2c3cc(OC)c(OC)cc3CCN2C(=O)c2cccc(Cl)c2)cc1 (centres unmarked) [CIQ, (3-chlorophenyl) [3,4-dihydro-6,7-dimethoxy-1-[(4-methoxyphenoxy)methyl]-2(1H)-isoquinolinyl]methanone]
nH (Hill slope, potentiation) (human GluN1/GluN2C; human GluN1/GluN2C, 100 µM glutamate plus 30 µM glycine): 1.6 | maximal potentiation compared to NMDA receptor currents in the absence of CIQ (rat GluN1/GluN2D [2]; [14]): 240 ± 20 | nH (Hill slope, potentiation) (rat GluN1/GluN2D [2]; [14]): 1.3 | maximal potentiation compared to NMDA receptor currents in the absence of CIQ (rat GluN1/GluN2C; [15]): 260 ± 30 | nH (Hill slope, potentiation) (rat GluN1/GluN2C; [15]): 1.1 | maximal potentiation compared to NMDA receptor currents in the absence of CIQ (human GluN1/GluN2D [4]; [16]): 250 ± 10 | nH (Hill slope, potentiation) (human GluN1/GluN2D [4]; [16]): 1.3

CN[C@H](CC(=O)O)C(=O)O [NMDA, N-methyl-D-aspartate]
nH (Hill slope) (human GluN1/GluN2A; 30 µM glycine): 1.3 | EC50 (human GluN1/GluN2A; continuous presence of 30 µM glycine, -40 mV): 68 ± 3 µM | EC50 (human GluN1/GluN2C): 19 ± 1 µM | nH (Hill slope) (human GluN1/GluN2C): 1.2 | nH (Hill slope) (rat GluN1/GluN2D [2]; rat GluN1/GluN2D): 1.7 | EC50 (rat GluN1/GluN2D [2]; rat GluN1/GluN2D, continuous presence of 30 µM glycine, -40 mV): 7.9 ± 0.9 µM | nH (Hill slope) (rat GluN1/GluN2B [1]; rat GluN1/GluN2B): 1.7 | EC50 (rat GluN1/GluN2B [1]; rat GluN1/GluN2B, continuous presence of 30 µM glycine, -40 mV): 21 ± 4 µM | maximal activation compared to maximal activation by the full agonist glutamate [9]: 69–89% | nH (Hill slope) (rat GluN1/GluN2A [3]; rat GluN1/GluN2A): 1.5 | EC50 (rat GluN1/GluN2A [3]; rat GluN1/GluN2A, continuous presence of 30 µM glycine, -40 mV): 71 ± 9 µM | nH (Hill slope) (human GluN1/GluN2B; 30 µM glycine): 1.4 | EC50 (human GluN1/GluN2B; continuous presence of 30 µM glycine): 23 ± 2 µM | nH (Hill slope) (rat GluN1/GluN2C; rat GluN1/GluN2C): 1.4 | EC50 (rat GluN1/GluN2C; rat GluN1/GluN2C, continuous presence of 30 µM glycine, -40 mV): 19 ± 2 µM | EC50 (human GluN1/GluN2D [4]): 6.7 ± 0.2 µM | nH (Hill slope) (human GluN1/GluN2D [4]): 2.1

CN[C@]1(c2ccccc2Cl)CCCCC1=O [(+)ketamine, S-(+)-ketamine hydrochloride]
nH (Hill slope, inhibition) (human GluN1/GluN2A; -40 mV): 1.0 | IC50 (human GluN1/GluN2C): 0.79 ± 0.04 µM | nH (Hill slope, inhibition) (human GluN1/GluN2C): 0.9 | IC50 fold lower at rat compared to corresponding human subtype (rat GluN1/GluN2D [2]; GluN1/GluN2D, rat vs human): 1.7 fold | nH (Hill slope, inhibition) (rat GluN1/GluN2D [2]; [11]): 1.0 | IC50 fold lower at rat compared to corresponding human subtype (rat GluN1/GluN2B [1]; GluN1/GluN2B, rat vs human): 1.6 fold | nH (Hill slope, inhibition) (rat GluN1/GluN2B [1]; rat GluN1/GluN2B, -40 mV): 0.9 | nH (Hill slope, inhibition) (rat GluN1/GluN2A [3]; rat GluN1/GluN2A, -40 mV): 1.0 | nH (Hill slope, inhibition) (human GluN1/GluN2B): 1.0 | nH (Hill slope, inhibition) (rat GluN1/GluN2C; [12]): 1.0 | IC50 (human GluN1/GluN2D [4]): 2.4 ± 0.1 µM | nH (Hill slope, inhibition) (human GluN1/GluN2D [4]): 0.9
